# Assay results taken from ChEMBL document CHEMBL1255533, “PKI-179: an orally efficacious dual phosphatidylinositol-3-kinase (PI3K)/mammalian target of rapamycin (mTOR) inhibitor” (Bioorg Med Chem Lett, 2010).
# Target: Phosphatidylinositol 4,5-bisphosphate 3-kinase catalytic subunit alpha isoform (Homo sapiens, UniProt P42336)
# Experiment: Inhibition of PI3K-alpha
# Sequence of Phosphatidylinositol 4,5-bisphosphate 3-kinase catalytic subunit alpha isoform (P42336 whole entry, canonical isoform): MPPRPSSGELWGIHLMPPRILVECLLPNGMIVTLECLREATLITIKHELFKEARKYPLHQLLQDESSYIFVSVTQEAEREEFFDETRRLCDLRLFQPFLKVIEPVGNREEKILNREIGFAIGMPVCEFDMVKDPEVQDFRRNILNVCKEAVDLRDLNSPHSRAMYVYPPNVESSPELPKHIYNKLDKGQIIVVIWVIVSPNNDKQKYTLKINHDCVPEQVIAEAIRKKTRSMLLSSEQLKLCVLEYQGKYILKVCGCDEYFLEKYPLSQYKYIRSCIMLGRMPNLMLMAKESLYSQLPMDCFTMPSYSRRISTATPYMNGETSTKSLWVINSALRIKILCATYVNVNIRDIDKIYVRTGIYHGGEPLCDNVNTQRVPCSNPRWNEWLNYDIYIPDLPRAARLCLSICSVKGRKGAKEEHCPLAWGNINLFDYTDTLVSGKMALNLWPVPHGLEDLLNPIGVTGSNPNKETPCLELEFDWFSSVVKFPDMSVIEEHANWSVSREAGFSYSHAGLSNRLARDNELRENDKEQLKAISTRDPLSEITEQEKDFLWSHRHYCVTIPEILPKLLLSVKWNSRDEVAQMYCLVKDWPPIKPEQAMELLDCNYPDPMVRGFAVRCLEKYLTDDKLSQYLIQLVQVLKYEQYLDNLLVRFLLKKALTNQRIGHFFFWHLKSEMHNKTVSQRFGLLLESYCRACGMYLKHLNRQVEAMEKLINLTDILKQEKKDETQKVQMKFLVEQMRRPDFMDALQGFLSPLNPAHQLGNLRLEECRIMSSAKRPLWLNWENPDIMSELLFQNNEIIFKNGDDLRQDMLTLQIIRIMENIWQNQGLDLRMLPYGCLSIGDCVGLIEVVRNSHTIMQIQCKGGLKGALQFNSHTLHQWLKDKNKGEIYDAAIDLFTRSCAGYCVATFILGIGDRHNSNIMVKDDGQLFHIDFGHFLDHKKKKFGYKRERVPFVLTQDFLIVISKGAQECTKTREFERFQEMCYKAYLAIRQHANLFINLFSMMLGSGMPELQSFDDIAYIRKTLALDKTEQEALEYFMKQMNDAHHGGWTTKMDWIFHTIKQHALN
row,SMILES,IC50
1,O=C(Nc1ccncc1)Nc1ccc(-c2nc(N3CCOCC3)nc(N3C4COCC3[C@@H](O)C4)n2)cc1 (stereo partly drawn),4 nM
2,CN(C)CCOc1ccc(NC(=O)Nc2ccc(-c3nc(N4CCOCC4)nc(N4C5CCC4COC5)n3)cc2)cc1,14 nM
3,O=C(Nc1ccc(-c2nc(N3CCOCC3)nc(N3C4CCC3COC4)n2)cc1)Nc1ccc(-c2cccnc2)nc1,40 nM
4,COc1ccc(NC(=O)Nc2ccc(-c3nc(N4CCOCC4)nc(N4C5CCC4COC5)n3)cc2)cc1OC,13.5 nM
5,CN(C)c1ccc(NC(=O)Nc2ccc(-c3nc(N4CCOCC4)nc(N4C5CCC4COC5)n3)cc2)cc1,3.5 nM
6,O=C(Nc1ccc(-c2nc(N3CCOCC3)nc(N3C4CCC3COC4)n2)cc1)Nc1ccnnc1,28 nM
7,O=C(Nc1ccc(-c2nc(N3CCOCC3)nc(N3C4CCC3COC4)n2)cc1)Nc1cncnc1,84 nM
8,O=C(Nc1ccc(-c2nc(N3CCOCC3)nc(N3C4CCC3COC4)n2)cc1)Nc1ccnc(Cl)c1,23 nM
9,O=C(Nc1ccccc1)Nc1ccc(-c2nc(N3CCOCC3)nc(N3C4CCC3COC4)n2)cc1,18 nM

# Tested on: PC-3
# Experiment: Antiproliferative activity against human PC3 cells
# Type: functional, cell-based
row,SMILES,IC50
1,O=C(Nc1ccncc1)Nc1ccc(-c2nc(N3CCOCC3)nc(N3C4COCC3[C@@H](O)C4)n2)cc1 (stereo partly drawn),80 nM
2,CN(C)CCOc1ccc(NC(=O)Nc2ccc(-c3nc(N4CCOCC4)nc(N4C5CCC4COC5)n3)cc2)cc1,< 30 nM
3,O=C(Nc1ccc(-c2nc(N3CCOCC3)nc(N3C4CCC3COC4)n2)cc1)Nc1ccc(-c2cccnc2)nc1,45 nM
4,COc1ccc(NC(=O)Nc2ccc(-c3nc(N4CCOCC4)nc(N4C5CCC4COC5)n3)cc2)cc1OC,1250 nM
5,CN(C)c1ccc(NC(=O)Nc2ccc(-c3nc(N4CCOCC4)nc(N4C5CCC4COC5)n3)cc2)cc1,> 1000 nM
6,O=C(Nc1ccc(-c2nc(N3CCOCC3)nc(N3C4CCC3COC4)n2)cc1)Nc1ccnnc1,47 nM
7,O=C(Nc1ccc(-c2nc(N3CCOCC3)nc(N3C4CCC3COC4)n2)cc1)Nc1cncnc1,138 nM
8,O=C(Nc1ccc(-c2nc(N3CCOCC3)nc(N3C4CCC3COC4)n2)cc1)Nc1ccnc(Cl)c1,118 nM
9,O=C(Nc1ccccc1)Nc1ccc(-c2nc(N3CCOCC3)nc(N3C4CCC3COC4)n2)cc1,147 nM

# Tested on: MDA-MB-361
# Experiment: Antiproliferative activity against human MDA-MB-361 cells
# Type: functional, cell-based
row,SMILES,IC50
1,O=C(Nc1ccncc1)Nc1ccc(-c2nc(N3CCOCC3)nc(N3C4COCC3[C@@H](O)C4)n2)cc1 (stereo partly drawn),32 nM
2,CN(C)CCOc1ccc(NC(=O)Nc2ccc(-c3nc(N4CCOCC4)nc(N4C5CCC4COC5)n3)cc2)cc1,< 30 nM
3,O=C(Nc1ccc(-c2nc(N3CCOCC3)nc(N3C4CCC3COC4)n2)cc1)Nc1ccc(-c2cccnc2)nc1,56 nM
4,COc1ccc(NC(=O)Nc2ccc(-c3nc(N4CCOCC4)nc(N4C5CCC4COC5)n3)cc2)cc1OC,402 nM
5,CN(C)c1ccc(NC(=O)Nc2ccc(-c3nc(N4CCOCC4)nc(N4C5CCC4COC5)n3)cc2)cc1,> 1000 nM
6,O=C(Nc1ccc(-c2nc(N3CCOCC3)nc(N3C4CCC3COC4)n2)cc1)Nc1ccnnc1,36 nM
7,O=C(Nc1ccc(-c2nc(N3CCOCC3)nc(N3C4CCC3COC4)n2)cc1)Nc1cncnc1,110 nM
8,O=C(Nc1ccc(-c2nc(N3CCOCC3)nc(N3C4CCC3COC4)n2)cc1)Nc1ccnc(Cl)c1,93 nM
9,O=C(Nc1ccccc1)Nc1ccc(-c2nc(N3CCOCC3)nc(N3C4CCC3COC4)n2)cc1,104 nM

# Target: Phosphatidylinositol 4,5-bisphosphate 3-kinase catalytic subunit gamma isoform (Homo sapiens, UniProt P48736)
# Experiment: Inhibition of PI3K-gamma
# Sequence of Phosphatidylinositol 4,5-bisphosphate 3-kinase catalytic subunit gamma isoform (P48736 whole entry, canonical isoform): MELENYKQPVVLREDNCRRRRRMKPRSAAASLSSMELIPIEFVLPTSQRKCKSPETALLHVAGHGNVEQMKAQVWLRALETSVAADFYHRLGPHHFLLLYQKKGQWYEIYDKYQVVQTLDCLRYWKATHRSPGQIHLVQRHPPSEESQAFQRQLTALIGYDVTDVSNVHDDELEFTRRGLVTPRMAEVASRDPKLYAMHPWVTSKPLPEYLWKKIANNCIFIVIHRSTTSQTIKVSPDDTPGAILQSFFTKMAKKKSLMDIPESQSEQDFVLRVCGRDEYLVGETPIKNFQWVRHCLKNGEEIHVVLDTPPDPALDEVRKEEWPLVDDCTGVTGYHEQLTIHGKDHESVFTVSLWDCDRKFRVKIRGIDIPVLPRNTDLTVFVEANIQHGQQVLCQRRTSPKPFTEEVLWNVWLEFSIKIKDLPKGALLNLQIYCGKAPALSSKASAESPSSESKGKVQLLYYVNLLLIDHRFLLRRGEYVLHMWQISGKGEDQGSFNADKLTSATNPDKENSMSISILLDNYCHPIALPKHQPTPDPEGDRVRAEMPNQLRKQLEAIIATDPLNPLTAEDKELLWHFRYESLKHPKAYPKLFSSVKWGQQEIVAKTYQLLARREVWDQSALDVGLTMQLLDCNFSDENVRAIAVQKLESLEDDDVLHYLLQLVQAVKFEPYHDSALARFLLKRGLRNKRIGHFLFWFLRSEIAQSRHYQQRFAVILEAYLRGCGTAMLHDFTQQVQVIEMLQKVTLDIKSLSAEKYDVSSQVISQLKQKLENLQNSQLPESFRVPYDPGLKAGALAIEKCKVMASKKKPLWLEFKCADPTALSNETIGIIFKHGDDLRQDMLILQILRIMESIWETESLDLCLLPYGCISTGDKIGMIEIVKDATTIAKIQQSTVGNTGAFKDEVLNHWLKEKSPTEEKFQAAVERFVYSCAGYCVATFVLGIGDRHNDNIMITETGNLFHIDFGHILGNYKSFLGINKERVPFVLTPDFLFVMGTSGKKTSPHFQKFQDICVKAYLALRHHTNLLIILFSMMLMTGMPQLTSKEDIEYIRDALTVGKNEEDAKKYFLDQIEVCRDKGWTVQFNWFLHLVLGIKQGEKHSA
row,SMILES,IC50
1,O=C(Nc1ccncc1)Nc1ccc(-c2nc(N3CCOCC3)nc(N3C4COCC3[C@@H](O)C4)n2)cc1 (stereo partly drawn),33 nM
2,O=C(Nc1ccc(-c2nc(N3CCOCC3)nc(N3C4CCC3COC4)n2)cc1)Nc1ccc(-c2cccnc2)nc1,44 nM
3,COc1ccc(NC(=O)Nc2ccc(-c3nc(N4CCOCC4)nc(N4C5CCC4COC5)n3)cc2)cc1OC,358 nM
4,CN(C)c1ccc(NC(=O)Nc2ccc(-c3nc(N4CCOCC4)nc(N4C5CCC4COC5)n3)cc2)cc1,717 nM
5,O=C(Nc1ccc(-c2nc(N3CCOCC3)nc(N3C4CCC3COC4)n2)cc1)Nc1cncnc1,240 nM
6,O=C(Nc1ccccc1)Nc1ccc(-c2nc(N3CCOCC3)nc(N3C4CCC3COC4)n2)cc1,51 nM

# Target: Serine/threonine-protein kinase mTOR (Homo sapiens, UniProt P42345)
# Experiment: Inhibition of mTOR
row,SMILES,IC50
1,O=C(Nc1ccncc1)Nc1ccc(-c2nc(N3CCOCC3)nc(N3C4COCC3[C@@H](O)C4)n2)cc1 (stereo partly drawn),0.8 nM
2,O=C(Nc1ccc(-c2nc(N3CCOCC3)nc(N3C4CCC3COC4)n2)cc1)Nc1ccc(-c2cccnc2)nc1,3.45 nM
3,COc1ccc(NC(=O)Nc2ccc(-c3nc(N4CCOCC4)nc(N4C5CCC4COC5)n3)cc2)cc1OC,93.5 nM
4,CN(C)c1ccc(NC(=O)Nc2ccc(-c3nc(N4CCOCC4)nc(N4C5CCC4COC5)n3)cc2)cc1,13.5 nM
5,O=C(Nc1ccccc1)Nc1ccc(-c2nc(N3CCOCC3)nc(N3C4CCC3COC4)n2)cc1,2 nM
